Laboratory results taken from patent US8883124B2, “Use of fullerenes in photoacoustic imaging” (University of Florida Research Foundation, Inc., priority 2007, dated 2014).

Legend:
[1] = tested on: mouse tumor; experiment: In vivo PAT of mouse tumor after intratumoral injection
Procedure: In vivo experiments were carried with mouse tumor model. Six to eight week old BALB/c nude mice (CAnN.Cg-Foxn1nu/Crl) were purchased from Charles River and acclimated for 7 to 10 days. Supplemental estrogen (2 μg of 17β-estradiol valerate/week) was placed subcutaneously at least 1 week prior to tumor implantation. Mice were subcutaneously inoculated with 2×10^7 BT474 cells on the abdominal wall. Experiments were conducted 7-10 days following implantation, after the tumors had reached approximately 10 mm in size.
A volume of 30 μL of nanoparticle suspension (10 mg/mL for PHF and 0.45 mg/mL for CP-0.25) was injected into the mouse tumor. The mouse was placed in the water tank on an inclined plane with its head above the water surface. The PAT instrumentation for in vivo experiments was similar to that described for in vitro experiments, except that acoustic signals were collected over 300° range, giving a total of 100 measurements for each trial. PAT images of mouse tumor were obtained before and after injecting nanoparticles.

[2] = Water solubility; format: physicochemical

- water solubility [2]: water-soluble
Substance: Polyhydroxy fullerenes [PHF]
- PAT signal in the region of the tumor after injection ([1]; mouse tumor (BT474, BALB/c nude mice), intratumoral injection of 30 μL of 10 mg/mL, before vs after): large increase in PAT signal
- contrast with the tumor and surrounding non-tumoral tissue in vivo using PAT ([1]; mouse tumor, 30 μL intratumoral, 10 mg/mL for PHF and 0.45 mg/mL for CP-0.25): excellent contrast
